What was measured:
C57BL/6 mice [1] = experiment: noxious thermal sensitivity, Hargreaves paw withdrawal latency; format: in vivo, mouse
C57BL/6 mice [2] = experiment: telemetry of heart rate and body temperature; format: in vivo, mouse; details: 5000 nmol/kg, oral
human A2AAR = human A2AAR (Homo sapiens, UniProt P29274); experiment: radioligand binding assay
human A3AR = biological target: T1, human A3AR (Homo sapiens, UniProt P0DMS8); experiment: radioligand binding assay
T1 sequence (P0DMS8 1-318): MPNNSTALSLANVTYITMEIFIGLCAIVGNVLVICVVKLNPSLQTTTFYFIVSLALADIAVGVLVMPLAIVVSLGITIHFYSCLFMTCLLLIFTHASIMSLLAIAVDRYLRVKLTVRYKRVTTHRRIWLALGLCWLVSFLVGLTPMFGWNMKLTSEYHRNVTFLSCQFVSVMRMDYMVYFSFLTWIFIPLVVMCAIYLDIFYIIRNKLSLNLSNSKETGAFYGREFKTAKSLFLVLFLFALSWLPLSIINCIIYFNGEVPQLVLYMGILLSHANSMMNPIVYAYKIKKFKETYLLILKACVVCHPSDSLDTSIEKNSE

human A1AR [3] = biological target: T2, human A1AR (Homo sapiens, UniProt P30542); experiment: Ca2+ mobilization assay with chimeric G proteins; format: cell-based; details: Emax normalized to Emax of adenosine
T2 sequence (P30542 1-326): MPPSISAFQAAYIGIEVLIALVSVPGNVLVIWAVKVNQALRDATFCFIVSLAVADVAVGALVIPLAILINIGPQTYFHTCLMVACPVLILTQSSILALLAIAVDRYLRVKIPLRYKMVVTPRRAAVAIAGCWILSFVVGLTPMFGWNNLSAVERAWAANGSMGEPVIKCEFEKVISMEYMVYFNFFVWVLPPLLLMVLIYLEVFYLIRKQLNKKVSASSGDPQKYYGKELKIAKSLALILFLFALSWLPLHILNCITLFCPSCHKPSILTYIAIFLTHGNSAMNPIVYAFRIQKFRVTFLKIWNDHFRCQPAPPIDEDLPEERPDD

human A1AR [4] = biological target: T2, human A1AR; experiment: cAMP accumulation assay; format: cell-based; details: for agonist efficacy in cAMP accumulation assay: compared to compound 3, highest concentration tested; for effect of αβ-met-ADP on potency: inclusion of 10 μM αβ-met-ADP (NT5E/CD73 inhibitor)
human A2BAR = biological target: T3, human A2BAR (Homo sapiens, UniProt P29275); experiment: radioligand binding assay; details: read-out: % inhibition at A2B, 50 μM
T3 sequence (P29275 1-332): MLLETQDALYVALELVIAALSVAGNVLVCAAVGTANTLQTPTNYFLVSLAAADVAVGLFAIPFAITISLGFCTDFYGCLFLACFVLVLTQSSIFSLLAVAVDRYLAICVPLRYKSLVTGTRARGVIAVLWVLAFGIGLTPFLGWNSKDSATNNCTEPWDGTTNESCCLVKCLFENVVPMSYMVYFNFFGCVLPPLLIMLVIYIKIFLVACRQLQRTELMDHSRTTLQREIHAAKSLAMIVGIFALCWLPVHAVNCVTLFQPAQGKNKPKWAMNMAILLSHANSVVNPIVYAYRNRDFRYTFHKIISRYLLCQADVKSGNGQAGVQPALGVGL

[5] = oral, 50, 500 or 5000 nmol/kg, wild-type mice

human A2AAR, sequence (P29274 whole entry): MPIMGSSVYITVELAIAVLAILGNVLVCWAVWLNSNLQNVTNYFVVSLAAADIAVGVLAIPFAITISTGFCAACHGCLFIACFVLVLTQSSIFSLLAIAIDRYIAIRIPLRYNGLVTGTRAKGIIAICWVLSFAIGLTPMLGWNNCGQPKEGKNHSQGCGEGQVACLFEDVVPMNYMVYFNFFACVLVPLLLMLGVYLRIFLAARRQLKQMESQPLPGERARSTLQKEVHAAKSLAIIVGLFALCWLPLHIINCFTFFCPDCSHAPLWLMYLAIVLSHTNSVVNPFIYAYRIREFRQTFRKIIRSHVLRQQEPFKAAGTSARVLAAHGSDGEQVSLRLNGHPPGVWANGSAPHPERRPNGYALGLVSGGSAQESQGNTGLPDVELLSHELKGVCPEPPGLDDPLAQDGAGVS

| agonist efficacy in cAMP accumulation assay (human A1AR [4]) | Structure (SMILES) | effect on noxious thermal sensitivity (C57BL/6 mice [1]; [5]) | effect on body temperature (C57BL/6 mice [2]; A1AR–/– mice) | effect on heart rate (C57BL/6 mice [2]; A1AR–/– mice) | effect on body temperature (C57BL/6 mice [2]; wild-type mice) | effect on heart rate (C57BL/6 mice [2]; wild-type mice) | selectivity for A1AR over A2AAR (human A2AAR) | selectivity for A1AR over A3AR (human A3AR) | agonist efficacy in Ca2+ mobilization assay (human A1AR [3]) | effect of αβ-met-ADP on potency (human A1AR [4]) | thermal antinociceptive effect in A1AR knockout mice (C57BL/6 mice [1]; A1AR–/– mice, 5 nmol, IT injection) | effect on noxious thermal sensitivity (C57BL/6 mice [1]; intrathecal (IT) or intravenous (IV) injection, mice) | inhibition at 50 µM (human A2BAR) |
| --- | --- | --- | --- | --- | --- | --- | --- | --- | --- | --- | --- | --- | --- |
| – | OC[C@H]1O[C@@H](n2cnc3c(NC4CCCC4)ncnc32)[C@H](O)[C@@H]1O [Compound 5, N^6-cyclopentyl adenosine, reference compound] | effects of 3a were similar to 5 | but not in A1AR^–/– mice | modest increase in heart rate | statistically significant decrease | statistically significant decrease | – | – | – | – | – | – | – |
| – | O=P([O-])([O-])OC[C@H]1O[C@@H](n2cnc3c(NC4CCCC4)nc(Cl)nc32)[C@H](O)[C@@H]1O.[Na+].[Na+] [Compound 3d, Sodium ((2R,3S,4R,5R)-5-(2-Chloro-6-(cyclopentylamino)-9H-purin-9-yl)-3,4-dihydroxytetrahydrofuran-2-yl)methyl Phosphate] | – | – | – | – | – | > 100 fold | > 10 fold | potent full agonists | – | – | – | – |
| full agonists | Nc1ncnc2c1ncn2[C@@H]1O[C@H](CO)[C@@H](O)[C@H]1OP(=O)(O)O [2′-AMP, adenosine 2′-monophosphate] | – | – | – | – | – | – | – | – | did not significantly alter the potencies | – | – | – |
| full agonists | Nc1ncnc2c1ncn2[C@@H]1O[C@H](CO)[C@@H](OP(=O)(O)O)[C@H]1O [3′-AMP, adenosine 3′-monophosphate] | – | – | – | – | – | – | – | – | did not significantly alter the potencies | – | – | – |

| Structure (SMILES) | agonist efficacy in cAMP accumulation assay (human A1AR [4]) | effect on noxious thermal sensitivity (C57BL/6 mice [1]; [5]) | effect on body temperature (C57BL/6 mice [2]; A1AR–/– mice) | effect on heart rate (C57BL/6 mice [2]; A1AR–/– mice) | effect on body temperature (C57BL/6 mice [2]; wild-type mice) | effect on heart rate (C57BL/6 mice [2]; wild-type mice) | selectivity for A1AR over A2AAR (human A2AAR) | selectivity for A1AR over A3AR (human A3AR) | agonist efficacy in Ca2+ mobilization assay (human A1AR [3]) | effect of αβ-met-ADP on potency (human A1AR [4]) | thermal antinociceptive effect in A1AR knockout mice (C57BL/6 mice [1]; A1AR–/– mice, 5 nmol, IT injection) | effect on noxious thermal sensitivity (C57BL/6 mice [1]; intrathecal (IT) or intravenous (IV) injection, mice) | inhibition at 50 µM (human A2BAR) |
| --- | --- | --- | --- | --- | --- | --- | --- | --- | --- | --- | --- | --- | --- |
| COP(=O)(OC)OC[C@H]1O[C@@H](n2cnc3c(NC4CCCC4)nc(Cl)nc32)[C@H](O)[C@@H]1O [Compound 3a, ((2R,3S,4R,5R)-5-(2-Chloro-6-(cyclopentylamino)-9H-purin-9-yl)-3,4-dihydroxytetrahydrofuran-2-yl)methyl Dimethyl Phosphate] | full agonist | dose-dependently inhibited noxious thermal sensitivity | negligible effects | negligible effects | negligible effects | negligible effects | > 100 fold | > 10 fold | potent full agonists | – | completely abolished | marked and dose-dependent inhibition of noxious thermal sensitivity | < 10% |

— article PMC3501123 (Journal of medicinal chemistry, 2012)
